Results on nine molecules are retold here after ChEMBL document CHEMBL5137058, “Therapeutic Strategies to Target the Androgen Receptor” (J Med Chem, 2022).

For one assay, the system named is MR49F. The assay is described as follows: Antiproliferative activity against human MR49F cells. The class given is functional, cell-based.
In assay [1] the test system is LNCaP. The experiment in a line: Antiproliferative activity against human LNCaP cells. It is filed as functional, cell-based.
Assay [2] addresses T1, Androgen receptor (Homo sapiens) (UniProt P10275).
T1 sequence (whole entry): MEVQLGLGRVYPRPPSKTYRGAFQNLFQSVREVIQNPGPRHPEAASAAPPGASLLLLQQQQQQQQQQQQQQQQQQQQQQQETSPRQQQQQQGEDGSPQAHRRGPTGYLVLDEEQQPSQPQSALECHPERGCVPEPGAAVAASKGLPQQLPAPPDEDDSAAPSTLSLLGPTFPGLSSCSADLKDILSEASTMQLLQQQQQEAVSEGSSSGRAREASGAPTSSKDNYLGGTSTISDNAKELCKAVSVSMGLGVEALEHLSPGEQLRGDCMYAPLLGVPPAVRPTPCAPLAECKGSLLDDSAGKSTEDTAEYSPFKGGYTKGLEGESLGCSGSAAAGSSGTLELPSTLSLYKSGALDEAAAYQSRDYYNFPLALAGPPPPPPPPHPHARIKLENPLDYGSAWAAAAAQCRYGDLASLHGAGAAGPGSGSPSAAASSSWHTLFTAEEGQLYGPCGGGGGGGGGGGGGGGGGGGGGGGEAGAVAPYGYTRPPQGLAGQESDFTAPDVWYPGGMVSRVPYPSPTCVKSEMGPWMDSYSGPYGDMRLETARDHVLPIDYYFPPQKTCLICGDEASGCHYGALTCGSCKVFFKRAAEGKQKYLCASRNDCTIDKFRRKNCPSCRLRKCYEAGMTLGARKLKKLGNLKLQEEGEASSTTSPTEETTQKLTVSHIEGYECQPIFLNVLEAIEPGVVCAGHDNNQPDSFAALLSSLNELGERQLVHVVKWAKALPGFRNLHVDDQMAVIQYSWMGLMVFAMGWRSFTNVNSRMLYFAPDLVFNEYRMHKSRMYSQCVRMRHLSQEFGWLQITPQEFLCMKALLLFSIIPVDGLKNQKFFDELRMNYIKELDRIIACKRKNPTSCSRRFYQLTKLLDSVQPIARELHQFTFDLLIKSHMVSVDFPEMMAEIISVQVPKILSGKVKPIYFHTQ
The experiment in a line: Antagonist activity at Androgen receptor in human LNCaP cells assessed as inhibition of PSA expression at 10 uM measured by ELISA assay. The class given is cell-based. Details: scale not given: the % may be the effect or the level left. (In an ELISA, binding on a coated surface is turned into a signal by an enzyme label.)

Assay [3] in a line: Inhibition of human LNCaP cell growth at 10 uM measured after 24 hrs by AlamarBlue staining method. It is filed as functional.
Assay [4] has as its target T2, von Hippel-Lindau disease tumor suppressor/Androgen receptor (Homo sapiens, UniProt P10275+P40337). The experiment in a line: Protac activity at VHL/Androgen receptor in human VCaP cells assessed as Androgen receptor degradation. The class given is cell-based.
Target sequence in this assay (P40337 whole entry, one chain of several): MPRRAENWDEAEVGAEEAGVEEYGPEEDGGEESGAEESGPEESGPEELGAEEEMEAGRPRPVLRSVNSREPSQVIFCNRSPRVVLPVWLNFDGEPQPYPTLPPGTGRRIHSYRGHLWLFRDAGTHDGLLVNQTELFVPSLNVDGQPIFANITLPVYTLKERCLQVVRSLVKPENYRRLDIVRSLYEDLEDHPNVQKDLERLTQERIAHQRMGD
Assay [5] deals with T2, von Hippel-Lindau disease tumor suppressor/Androgen receptor. The assay is described as follows: Protac activity at VHL/Androgen receptor in human LNCaP cells assessed as Androgen receptor degradation. It is filed as cell-based.
Target sequence in this assay (P40337 whole entry, one chain of several): as above
Assay [6] concerns the target T3, Androgen receptor (Homo sapiens, UniProt P10275).
T3 sequence (P10275 whole entry): T1 sequence (whole entry)
The assay is described as follows: Antagonist activity at Androgen receptor in human LNCaP cells assessed as inhibition of Binding Function 3 (BF3) of AR measured by enhanced green fluorescent protein transcriptional (eGFPT) assay. It is filed as cell-based.

Assay [7] has as its target Androgen receptor (Rattus norvegicus, UniProt P15207).
Description: Binding affinity to rat Androgen receptor ligand binding domain measured by competitive ligand binding assay
Assay [8] has as its target T2, von Hippel-Lindau disease tumor suppressor/Androgen receptor. The experiment in a line: Protac activity at VHL (unknown origin)/Androgen receptor (unknown origin) assessed as full-length Androgen receptor degradation measured by immunoblotting method. It is filed as protein assay. A general note: A western blot detects proteins with antibodies after separation by electrophoresis.
Target sequence in this assay (P40337 whole entry, one chain of several): as above

Assay [9] shares this target. The assay is described as follows: Protac activity at VHL (unknown origin)/Androgen receptor splice variant7 (unknown origin) assessed as Androgen receptor degradation measured by immunoblotting method.
Target sequence in this assay (P40337 whole entry, looked up, change not shown, one chain of several): as the sequence (P40337 whole entry, one chain of several) above
Assay [10] concerns the target T3, Androgen receptor. The assay is described as follows: Antagonist activity at Androgen receptor in human LNCaP cells assessed as inhibition of Binding Function 3 (BF3) of AR measured by luciferase assay. It is filed as cell-based.
Assay [11] has as its target Protein cereblon/Androgen receptor (Homo sapiens, UniProt P10275+Q96SW2). The experiment in a line: Protac activity at CRBN/Androgen receptor in human LNCaP cells assessed as Androgen receptor degradation. The class given is cell-based.
Assay [12] concerns LNCaP. The experiment in a line: Antiproliferative activity against human LNCaP cells after 5 days by MTS assay. It is filed as functional. Conditions: time 5 day. For orientation: Tetrazolium assays rely on reduction of a dye to a coloured formazan, in cell work by metabolically active cells.
A short description of assay [13]: Antiproliferative activity against AR-independent human CWR22Rv cells after 5 days by MTS assay. It is filed as functional, cell-based. Particulars: 120 h.
Assay [14] can be described thus: Antitumor activity against human CWR22Rv cells xenografted in mouse at 10 mg/kg, ip administered for 21 days. It is filed as functional. Conditions: time 21 day.
Assay [15] addresses T1, Androgen receptor (Homo sapiens). The experiment in a line: Agonist activity at Androgen receptor (unknown origin) in presence of DHT.
A further assay deals with HEK-293T. The assay is described as follows: Antiproliferative activity against NTD-over expressed human HEK293T cells after 5 days by MTS assay. The class given is functional, cell-based. Conditions: 120 h.
Assay [16] addresses T1, Androgen receptor (Homo sapiens). The experiment in a line: Antagonist activity at Androgen receptor (unknown origin) at 10 uM relative to control. The arrangement: scale not given: the % may be the effect or the level left. Particulars: filed as antagonist.
A further assay concerns LNCaP C4-2. The assay is described as follows: Antiproliferative activity against AR-independent human LNCaP C4-2 cells after 5 days by MTS assay. It is filed as functional, cell-based. Particulars: LNCaP C4-2, 120 h.

Protein cereblon/Androgen receptor, sequence (Q96SW2 whole entry, one chain of several): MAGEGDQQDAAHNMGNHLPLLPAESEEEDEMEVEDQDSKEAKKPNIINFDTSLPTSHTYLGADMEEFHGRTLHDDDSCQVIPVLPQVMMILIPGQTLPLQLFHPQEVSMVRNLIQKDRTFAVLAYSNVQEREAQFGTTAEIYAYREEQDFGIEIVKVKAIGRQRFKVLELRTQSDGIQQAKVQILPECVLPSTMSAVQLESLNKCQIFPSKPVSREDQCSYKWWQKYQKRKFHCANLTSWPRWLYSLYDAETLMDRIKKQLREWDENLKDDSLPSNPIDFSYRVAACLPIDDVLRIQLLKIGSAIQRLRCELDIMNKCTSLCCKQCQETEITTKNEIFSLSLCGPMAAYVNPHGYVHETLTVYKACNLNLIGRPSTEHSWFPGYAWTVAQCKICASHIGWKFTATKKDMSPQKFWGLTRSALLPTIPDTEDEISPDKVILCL
Androgen receptor (Rattus norvegicus, UniProt P15207), sequence (P15207 whole entry S389L): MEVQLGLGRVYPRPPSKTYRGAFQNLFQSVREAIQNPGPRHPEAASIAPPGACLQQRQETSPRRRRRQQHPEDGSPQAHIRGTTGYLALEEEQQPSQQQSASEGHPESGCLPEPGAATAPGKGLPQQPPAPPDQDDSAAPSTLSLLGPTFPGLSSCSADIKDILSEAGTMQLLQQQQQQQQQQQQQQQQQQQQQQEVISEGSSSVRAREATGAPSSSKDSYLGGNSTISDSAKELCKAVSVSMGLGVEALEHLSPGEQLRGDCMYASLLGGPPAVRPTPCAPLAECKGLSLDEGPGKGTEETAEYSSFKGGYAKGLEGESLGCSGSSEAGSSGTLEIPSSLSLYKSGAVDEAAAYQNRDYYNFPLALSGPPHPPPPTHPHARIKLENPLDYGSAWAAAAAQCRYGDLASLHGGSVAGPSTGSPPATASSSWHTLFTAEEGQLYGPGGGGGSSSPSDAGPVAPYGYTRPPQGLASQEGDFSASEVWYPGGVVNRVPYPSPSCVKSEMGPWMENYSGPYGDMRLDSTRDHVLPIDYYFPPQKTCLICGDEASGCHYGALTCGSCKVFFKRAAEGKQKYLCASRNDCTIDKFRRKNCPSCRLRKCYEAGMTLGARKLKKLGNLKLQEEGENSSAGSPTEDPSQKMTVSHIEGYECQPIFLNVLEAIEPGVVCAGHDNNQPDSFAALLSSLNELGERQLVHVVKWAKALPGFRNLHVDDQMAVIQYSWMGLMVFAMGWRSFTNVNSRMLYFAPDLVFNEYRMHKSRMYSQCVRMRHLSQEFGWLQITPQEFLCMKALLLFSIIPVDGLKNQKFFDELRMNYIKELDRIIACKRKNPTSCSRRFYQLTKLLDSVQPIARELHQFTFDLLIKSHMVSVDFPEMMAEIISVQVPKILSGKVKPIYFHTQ

For orientation: IC50 means the concentration that inhibits the measured activity by half. For `Brc1ncn(-c2csc(N3CCOCC3)n2)c1Br`, the half-inhibitory concentration (IC50) in the assay with MR49F and in the assay on LNCaP [1] was under 500 nM throughout.
For orientation: inhibition means the relative decrease from the control value, in per cent. As for `COc1cc(/C=N/NC(=O)c2cc3c(ccc4ccccc43)o2)cc(OC)c1O`, in assay [2], the Activity turned out to be 30%. Also, the inhibition at 10 µM in assay [3] came out at 30%.
In general, DC50 refers to the concentration giving 50% degradation. For `Cc1ncsc1-c1ccc([C@H](CC(=O)N2CCC(N3CCC(C#Cc4ccc(C(=O)N[C@H]5C(C)(C)[C@H](Oc6ccc(C#N)c(Cl)c6)C5(C)C)cc4)CC3)CC2)NC(=O)[C@@H]2C[C@@H](O)CN2C(=O)[C@@H](NC(=O)C2(F)CC2)C(C)(C)C)cc1`, the DC50 in assay [4] and in assay [5] was under 1 nM in each case.
As to `CC(C)C(NC(=O)c1cc2ccc(F)cc2[nH]1)c1ccco1` (centres undefined), the IC50 on Androgen receptor [6] was found to be 430 nM.
As a reminder, the Ki is a dissociation constant, usually derived from enzyme kinetics or from competition with a known ligand. As for `C[C@](O)(Cn1ccc2cc(F)ccc21)C(=O)Nc1ccc(C#N)c(C(F)(F)F)c1`, the Ki at Androgen receptor [7] is over 10000 nM.
Regarding `Cc1ncsc1-c1ccc([C@H](C)NC(=O)[C@@H]2C[C@@H](O)CN2C(=O)[C@@H](NC(=O)CCCCNC(=O)COc2c(-c3csc(N4CCOCC4)n3)ccc(F)c2F)C(C)(C)C)cc1`, the 50% degradation concentration (DC50) in assay [8] was 2000 nM; in [9], 370 nM.
In the case of `CCS(=O)(=O)Nc1cccc(-c2cc(=O)n(-c3ccc(Cl)c(Cl)c3)nc2C)c1`, the IC50 on Androgen receptor [10] worked out at 6260 nM.
As for `C[C@](O)(COc1ccc(OCCOCCOc2cccc3c2C(=O)N(C2CCC(=O)NC2=O)C3=O)cc1)C(=O)Nc1ccc(I)c(C#N)c1` (some centres undefined), the DC50 in assay [11] was 5200 nM.
As a reminder, the T/C is the result in the treated group divided by that in the control group, in per cent. Consider `CCOc1ccc2c(c1OC(C)C)CCN(c1ccc(C(=O)Nc3cccc(C)n3)cn1)C2`, for which the results for the Activity (in the assay on LNCaP [12]; in [15]; in assay [16]) were over 90%, under 5% and over 95%, respectively. Also, the concentration for half-maximal inhibition (IC50) in [13] was 1000 nM; in the assay on HEK-293T, 780 nM; in the assay with LNCaP C4-2, 1000 nM. In assay [14], this molecule came in with a T/C of 65%.
